The values that follow come from patent US20260306429A1, “COMPOSITION FOR REDUCING METHANE PRODUCTION AND IMPROVING NITROGEN UTILIZATION EFFICIENCY OF RUMINANT ANIMALS COMPRISING HALOACETAMIDE AS ACTIVE INGREDIENT” (CHUNGANG UNIVERSITY INDUSTRY ACADEMIC COOPERATION FOUNDATION, priority 2024, published 2026).

The conditions of data set [1]: in words; cited from earlier work.
The subject of the next data set is Fibrobacter succinogenes. Description: qPCR absolute quantification of Fibrobacter succinogenes after in vitro rumen incubation. In kind it is cell-based. Particulars: 0.2 mmol/L, 24 h. As to the method: (§1) Rumen fluid was sampled from Hanwoo cows at the Nonghyup Research Farm in Anseong, Gyeonggi Province, and mixed with buffer at a ratio of 1:2 within 1 hour of sampling. Oat hay was used as the forage, and pelleted feed for the middle fattening period was used as the concentrate. After grinding, the forage and concentrate were mixed at a ratio of 1:1 after passing through a 1-mm screen. 50 ml of culture medium was dispensed into 0.5 g of dry matter, and the control group and the five experimental groups (acrylamide, chloroacetamide, glycolamide, iodoacetamide, and propionamide) were each incubated for 24 hours with five replicates. The control group was incubated in 50 mL of culture medium, whereas the experimental groups were incubated in 49.9 mL of culture medium plus 0.1 mL of deionized water. For the five experimental groups, the supplementation level of each amide was set to 0.2 mmol/L (final concentration), and the amounts added were 1.4216 mg/g for acrylamide, 1.8702 mg/g for 2-chloroacetamide, 1.4618 mg/g for propionamide, 1.5014 mg/g for glycolamide, and 3.6992 mg/g for iodoacetamide.
(§2) Gas pressure was measured at 0, 3, 6, 12, and 24 hours (gas collection intervals), and the gas released during each measurement was collected to determine the total gas production and methane production up to the final 24 hours. After completing the 24-hour incubation, pH, ammonia nitrogen (NH3—N), dry matter digestibility, neutral detergent fiber digestibility, volatile fatty acids (VFA), and the microbiome were analyzed.
(§3) Metagenomic DNA was extracted using the RBB+C method, followed by qPCR analysis and microbiome analysis. Microbial functions were predicted using PICRUSt2. Taxonomic drivers of differentially enriched MetaCyc pathways were identified using Fish Taco (Functional Shifts' Taxonomic Contributor).
(§4) Data conforming to normal distribution and homogeneity of variance were analyzed using the GLIMMIX procedure of SAS and Tukey's HSD test. […] Differences in the overall bacteriota and their functional profiles were analyzed using PERMANOVA. Differentially abundant microbial biomarkers were identified using multivariable association analysis with the MaAsLin2 R package, based on relatively abundant bacterial taxa and predicted microbial functions.
(§5) For the control group and the five experimental groups (acrylamide, chloroacetamide, glycolamide, iodoacetamide, and propionamide), the effects of the amide compounds on the absolute quantification of total bacteria, methanogens, protozoa, and specific cellulolytic bacterial species (Fibrobacter succinogenes, Ruminococcus flavefaciens, Ruminococcus albus, and Prevotella ruminicola) are presented in Table 3 below as quantitative real-time PCR data.
A general note: Real-time PCR tracks product formation cycle by cycle.

The subject of the next data set is Ruminococcus albus. Description: qPCR absolute quantification of Ruminococcus albus after in vitro rumen incubation. In kind it is cell-based. The note with it: 0.2 mmol/L, 24 h. As to the method: as §1, §2, §3, §4, §5
The next data set relates to Total bacteria. Description: qPCR absolute quantification of total bacteria after in vitro rumen incubation. The data set is classed as cell-based, rumen fluid of Hanwoo cows. Particulars: 0.2 mmol/L, 24 h. How it is done: as §1, §2, §3, §4, §5
Another data set concerns rumen fluid. Description: In vitro incubation of rumen fluid: digestibility, fermentation characteristics, gas and methane production, VFA. Particulars: 0.2 mmol/L. In kind it is cell-based, Hanwoo cows. How it is done:
as §1, §2, §4

The subject of another data set is rumen microbiota. In words: Differentially abundant genera and species in response to haloacetamide treatment; taxonomic drivers. In kind it is cell-based, rumen fluid of Hanwoo cows. Particulars: in words. As to the method: Rumen fluid was sampled from Hanwoo cows at the Nonghyup Research Farm in Anseong, Gyeonggi Province, and mixed with buffer at a ratio of 1:2 within 1 hour of sampling. Oat hay was used as the forage, and pelleted feed for the middle fattening period was used as the concentrate. After grinding, the forage and concentrate were mixed at a ratio of 1:1 after passing through a 1-mm screen. 50 ml of culture medium was dispensed into 0.5 g of dry matter, and the control group and the five experimental groups (acrylamide, chloroacetamide, glycolamide, iodoacetamide, and propionamide) were each incubated for 24 hours with five replicates. […]
Gas pressure was measured at 0, 3, 6, 12, and 24 hours (gas collection intervals), and the gas released during each measurement was collected to determine the total gas production and methane production up to the final 24 hours. After completing the 24-hour incubation, pH, ammonia nitrogen (NH3—N), dry matter digestibility, neutral detergent fiber digestibility, volatile fatty acids (VFA), and the microbiome were analyzed. […]
Data conforming to normal distribution and homogeneity of variance were analyzed using the GLIMMIX procedure of SAS and Tukey's HSD test. […] Differences in the overall bacteriota and their functional profiles were analyzed using PERMANOVA. […]

The test system of the next data set is Total protozoa. In words: qPCR absolute quantification of protozoa after in vitro rumen incubation. The data set is classed as cell-based, rumen fluid of Hanwoo cows. The note with it: 0.2 mmol/L, 24 h. As to the method: as §1, §2, §3, §4, §5
The next data set deals with Total methanogen. Description: qPCR absolute quantification of methanogens after in vitro rumen incubation. The data set is classed as cell-based, rumen fluid of Hanwoo cows. Particulars: 0.2 mmol/L, 24 h. How it is done:
as §1, §2, §3, §4, §5

Data set [2] relates to Ruminococcus flavefaciens. In words: qPCR absolute quantification of Ruminococcus flavefaciens after in vitro rumen incubation. The note with it: 0.2 mmol/L, 24 h. The data set is classed as cell-based. As to the method: as §1, §2, §3, §4, §5
The test system of the next data set is Prevotella ruminicola. In words: qPCR absolute quantification of Prevotella ruminicola after in vitro rumen incubation. Particulars: 0.2 mmol/L, 24 h. The data set is classed as cell-based. How it is done: as §1, §2, §3, §4, §5
The test system of another data set is rumen microbiome. In words: Alpha-diversity measurements of the rumen microbiome. Particulars: 0.2 mmol/L, 24 h. The data set is classed as cell-based, rumen fluid of Hanwoo cows. As to the method: as §1, §2, §3, §4
The alpha-diversity measurements for the control group and the five experimental groups (acrylamide, chloroacetamide, glycolamide, iodoacetamide, and propionamide) are presented in Table 4 below.

For `O=[N+]([O-])OCCCO` [3-NOP, 3-nitrooxypropanol], in data set [1], the toxicity / safety result was “issues related to residues in the animal body and safety”.

As for `NC(=O)CI` [IA, iodoacetamide], in the data set on Fibrobacter succinogenes, the “Fibrobacter succinogenes (absolute quantification, qPCR)” value is reported as 9.79^A. Moreover, the “Ruminococcus albus (absolute quantification, qPCR)” value in the data set with Ruminococcus albus is listed as 7.83^AB. Further, in the data set on Total bacteria, the “Total bacteria (absolute quantification, qPCR)” value was 10.38^A. Moreover, in the data set on rumen fluid (24 h), the “A:P ratio (acetate:propionate ratio)” value is listed as 1.89^C, the “DMD (dry matter digestibility)” value is listed as 76.18^B %, the “NDFD (neutral detergent fiber digestibility)” value was 47.83^A % and the “NH3—N (ammonia nitrogen)” value is 13.16^B mg/dL. For the same compound, the pH with rumen fluid (24 h) is reported as 6.19. Further, in the data set with rumen fluid (24 h, VFA composition), the Acetate was 52.09^C %, the Butyrate was 16.51^A %, the Isobutyrate worked out at 0.76% and the Isovalerate was 1.02^C %. For the same compound, in the data set with rumen fluid (24 h, VFA composition), the Propionate is on record as 27.56^A % and the Valerate is listed as 2.06^A %. Also, in the data set on rumen fluid (24 h, concentration), the Acetate is listed as 29.92^C mM, the Butyrate is 9.45^AB mM, the Isobutyrate is 0.43^C mM and the Isovalerate is recorded as 0.58^B mM. Further, in the data set with rumen fluid (24 h, concentration), the Propionate is 15.80^A mM, the “Total VFA (total volatile fatty acids)” value was 59.25^B mM and the Valerate amounted to 1.18 mM. Besides, the methane-reducing effects entry with rumen fluid (24 h, in words, from Table 1) is on record as “excellent methane-reducing effects”. Also, in the data set on rumen fluid (up to 24 h), the “CH4 (methane production per gram of degraded dry matter)” value is listed as 0.60^D mL/g dDM, the “CH4 (methane production)” value is recorded as 0.23^D mL and the “TGP (total gas production)” value is 129.37^B mL. Also, the differentially abundant bacteria result in the data set on rumen microbiota was “increases bacteria belonging to the genera Fibrobacter, Pseudobutyrivibrio, and Treponema, and the species Ruminococcus flavefaciens”. Further, in the data set with Total protozoa, the “Total protozoa (absolute quantification, qPCR)” value is listed as 9.68. In the data set on Total methanogen, the “Total methanogen (absolute quantification, qPCR)” value is listed as 7.74^B. In data set [2], the “Ruminococcus flavefaciens (absolute quantification, qPCR)” value is 8.51^A. Besides, the “Prevotella ruminicola (absolute quantification, qPCR)” value with Prevotella ruminicola was 9.72^A. Further, in the data set with rumen microbiome, the Chao1 was 525.3^A, the Evenness is 0.8895^AB, the Observed features is given as 520.6^A and the Shannon is given as 8.0215^A. For the same compound, the Simpson in the data set on rumen microbiome is listed as 0.9925^A.

In the case of `BrC(Br)Br` [bromoform], the toxicity / safety entry in data set [1] is given as “carcinogenic substance”.
